Converted amounts (≈) assume the structure as drawn.

The source of these data is ChEMBL document CHEMBL1123899, “Nucleic acid related compounds. 51. Synthesis and biological properties of sugar-modified analogues of the nucleoside antibiotics tubercidin, toyocamycin, sangivamycin, and formycin” (1987).

The test system of this assay is Vaccinia virus. In words: Minimum inhibitory concentration required to reduce vaccinia virus(VV) induced cytopathogenicity by 50%. The assay is classed as functional. The following applies: Orthopoxvirus vaccinia.
With `N#Cc1cn(C2OC(CO)CC2O)c2ncnc(N)c12` (configuration not stated), the MIC50 was 0.1 µg/mL (≈ 0.363 µM).

For `NC(=O)c1cn(C2OC(CO)CC2O)c2ncnc(N)c12` (configuration not stated), the MIC50 is 2 µg/mL (≈ 6.82 µM). As for `Nc1ncnc2c1ccn2[C@H]1C[C@H](O)[C@@H](CO)O1` [2'-Deoxytubercidin], the figure is 10 µg/mL (≈ 40 µM); as for `Nc1ncnc2c([C@H]3C[C@H](O)[C@@H](CO)O3)n[nH]c12`, more than 400 µg/mL; as for `NC(=O)c1cn([C@@H]2O[C@H](CO)[C@@H](O)[C@H]2O)c2ncnc(N)c12` [SANGIVAMYCIN], 0.02 µg/mL (≈ 0.0647 µM). As for `NC(=O)c1cn([C@H]2C[C@H](O)[C@@H](CO)O2)c2ncnc(N)c12`, the figure is 0.4 µg/mL (≈ 1.36 µM); as for `Nc1ncnc2c([C@@H]3O[C@H](CO)[C@@H](O)[C@H]3O)[nH]nc12` [FORMYCIN], 7 µg/mL (≈ 26.2 µM).

`Nc1ncnc2c(C3OC(CO)CC3O)n[nH]c12` (configuration not stated) came in with an MIC50 of more than 400 µg/mL. As for `Nc1ncnc2c1ccn2[C@@H]1O[C@H](CO)[C@@H](O)[C@@H]1O`, the figure is 40 µg/mL (≈ 150 µM). As for `Nc1ncnc2c1ccn2C1OC(CO)CC1O` (configuration not stated), the figure is 1.5 µg/mL (≈ 5.99 µM); as for `N#Cc1cn([C@H]2C[C@H](O)[C@@H](CO)O2)c2ncnc(N)c12`, 0.1 µg/mL (≈ 0.363 µM).

The compound `N#Cc1cn([C@@H]2O[C@H](CO)[C@@H](O)[C@@H]2O)c2ncnc(N)c12` showed an MIC50 of 1 µg/mL (≈ 3.43 µM). `Nc1ncnc2c1ccn2[C@@H]1O[C@H](CO)[C@H](O)[C@H]1O` returned an MIC50 of 0.03 µg/mL (≈ 0.113 µM).

In turn, `NC(=O)c1ncn([C@@H]2O[C@H](CO)[C@@H](O)[C@H]2O)n1` [RIBAVIRIN] yielded an MIC50 of 20 µg/mL (≈ 81.9 µM). As for `N#Cc1cn([C@@H]2O[C@H](CO)[C@@H](O)[C@H]2O)c2ncnc(N)c12` [TOYOCAMYCIN], the figure is more than 0.04 µg/mL; as for `NC(=O)c1cn([C@@H]2O[C@H](CO)[C@@H](O)[C@@H]2O)c2ncnc(N)c12`, 0.2 µg/mL (≈ 0.647 µM); as for `Nc1ncnc2c1ccn2[C@@H]1O[C@H](CO)[C@@H](O)[C@H]1O` [TUBERCIDIN], 0.007 µg/mL (≈ 0.0263 µM).
